Laboratory results: PMC7948982, “Dissecting the low catalytic capability of flavin-dependent halogenases” (The Journal of Biological Chemistry, 2020)
Blank lines part the entries; values can stand above or below the compound they belong to.

Key:
[1] = biological target: T1, Thal (tryptophan 6-halogenase) (Streptomyces albogriseolus, UniProt A1E280); assay: X-ray crystal structure, […] Å; type: binding; conditions: apo crystals soaked with FAD and Trp for 7 days, 25 °C
T1 construct: recombinant, E. coli BL21(DE3), pET28b; tag residues seen in 7CU1; two protomers per asymmetric unit; GFP11 C-terminal tag only in the mutant library screen

[2] = biological target: T1, Thal (tryptophan 6-halogenase); assay: X-ray crystal structure, […] Å; type: binding; conditions: crystal soak with FAD, tryptophan and dithionite; flavin site
[3] = biological target: T2, Thal (tryptophan 6-halogenase) (Streptomyces albogriseolus, UniProt A1E280, K79T); assay: stopped-flow absorbance at […] and […] nm, C4a-hydroperoxyflavin formation; type: biochemical; conditions: 30 μM enzyme, 15 μM FADH-, air-saturated buffer; 20 mM potassium phosphate pH 7.2, 25 °C
T2 construct: recombinant, E. coli BL21(DE3), pET28b; tag residues seen in 7CU1; two protomers per asymmetric unit; GFP11 C-terminal tag only in the mutant library screen

[4] = biological target: T3, PyrH (tryptophan 5-halogenase) (Streptomyces rugosporus, UniProt A4D0H5); assay: stopped-flow fluorescence, C4a-hydroxyflavin formation; type: biochemical; conditions: with C4a-hydroperoxyflavin enzyme; pH 7.2, 25 °C
T3 construct: construct and source details not given

[5] = biological target: T4, PrnA (tryptophan 7-halogenase) (Pseudomonas fluorescens, UniProt P95480); assay: as above; type: biochemical; conditions: with C4a-hydroperoxyflavin enzyme; pH 7.2, 25 °C
T4 construct: construct and source details not given

[6] = biological target: T1, Thal (tryptophan 6-halogenase); assay: stopped-flow fluorescence, kobs of C4a-hydroxyflavin formation versus halide; type: biochemical; conditions: binding to the C4a-hydroperoxyflavin form of the enzyme; two-step model; 20 mM potassium phosphate pH 7.2, 25 °C
Excerpt: stopped-flow fluorescence, kobs of C4a-hydroxyflavin formation versus halide on Thal (tryptophan 6-halogenase)

[7] = biological target: T1, Thal (tryptophan 6-halogenase); assay: X-ray crystal structure, […] Å; type: binding; conditions: apo crystals soaked, 2 days, 25 °C; tryptophan site
[8] = biological target: T5, (Pseudomonas fluorescens, UniProt P95480); assay: multiple turnover halogenation; type: biochemical
T5 construct: gene prnA; construct and source details not given
T5 sequence (P95480 whole entry): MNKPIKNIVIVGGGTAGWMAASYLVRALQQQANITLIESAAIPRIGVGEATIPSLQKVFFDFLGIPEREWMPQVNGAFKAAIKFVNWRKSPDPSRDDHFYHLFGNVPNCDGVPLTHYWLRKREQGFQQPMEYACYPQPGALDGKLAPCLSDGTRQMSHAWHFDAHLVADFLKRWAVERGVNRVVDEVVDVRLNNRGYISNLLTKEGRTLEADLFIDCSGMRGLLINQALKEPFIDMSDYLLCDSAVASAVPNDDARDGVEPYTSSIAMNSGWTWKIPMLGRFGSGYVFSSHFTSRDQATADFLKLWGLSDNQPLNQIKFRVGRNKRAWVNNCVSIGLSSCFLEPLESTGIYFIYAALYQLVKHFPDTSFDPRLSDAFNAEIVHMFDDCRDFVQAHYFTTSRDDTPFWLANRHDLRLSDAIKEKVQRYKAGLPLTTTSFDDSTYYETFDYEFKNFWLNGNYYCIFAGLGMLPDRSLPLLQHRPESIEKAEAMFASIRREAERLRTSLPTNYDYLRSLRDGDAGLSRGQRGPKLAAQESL

T1 sequence (A1E280 whole entry): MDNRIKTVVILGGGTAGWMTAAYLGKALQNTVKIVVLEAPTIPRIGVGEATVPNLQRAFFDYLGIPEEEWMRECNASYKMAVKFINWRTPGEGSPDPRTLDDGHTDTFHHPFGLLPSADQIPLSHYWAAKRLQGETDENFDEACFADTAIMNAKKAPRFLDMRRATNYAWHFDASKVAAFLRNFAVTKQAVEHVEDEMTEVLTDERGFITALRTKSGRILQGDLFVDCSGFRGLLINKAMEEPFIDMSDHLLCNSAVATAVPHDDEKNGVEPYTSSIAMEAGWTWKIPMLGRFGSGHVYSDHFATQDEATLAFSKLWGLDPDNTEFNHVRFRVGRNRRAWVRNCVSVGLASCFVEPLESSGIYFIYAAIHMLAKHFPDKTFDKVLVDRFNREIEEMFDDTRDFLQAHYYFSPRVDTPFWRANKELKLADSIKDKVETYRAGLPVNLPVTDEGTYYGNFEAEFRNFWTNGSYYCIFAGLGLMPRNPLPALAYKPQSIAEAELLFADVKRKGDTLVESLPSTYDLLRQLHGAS
T3 sequence (A4D0H5 whole entry): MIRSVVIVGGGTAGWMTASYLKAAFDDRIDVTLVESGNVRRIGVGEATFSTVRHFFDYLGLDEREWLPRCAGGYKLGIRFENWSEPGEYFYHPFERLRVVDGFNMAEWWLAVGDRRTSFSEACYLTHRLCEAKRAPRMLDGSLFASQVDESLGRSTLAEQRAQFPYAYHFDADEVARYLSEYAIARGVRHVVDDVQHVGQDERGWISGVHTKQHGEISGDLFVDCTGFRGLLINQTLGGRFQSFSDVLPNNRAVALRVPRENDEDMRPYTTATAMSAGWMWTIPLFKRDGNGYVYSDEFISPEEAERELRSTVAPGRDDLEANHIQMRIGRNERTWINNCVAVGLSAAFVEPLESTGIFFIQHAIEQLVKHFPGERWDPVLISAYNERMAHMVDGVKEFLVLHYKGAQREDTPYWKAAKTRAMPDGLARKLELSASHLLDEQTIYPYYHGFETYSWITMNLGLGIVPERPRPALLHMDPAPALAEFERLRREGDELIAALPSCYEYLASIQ
T2 sequence (A1E280 whole entry K79T): as the sequence (A1E280 whole entry) above, with K79T counted along it
T4 sequence (P95480 whole entry): as the sequence (P95480 whole entry) above

SMILES: Nc1ncnc2c1ncn2[C@@H]1O[C@H](COP(=O)(O)O)[C@@H](O)[C@H]1O [AMP]
X-ray crystal structure, 1.91 Å ([1]; flavin site crystal, AMP not added to the soak): Thal:FAD:AMP (PDB code 7CU1) were solved with two protomers per asymmetric unit (asu).

SMILES: Cc1cc2c(cc1C)N(C[C@H](O)[C@H](O)[C@H](O)COP(=O)(O)OP(=O)(O)OC[C@H]1O[C@@H](n3cnc4c(N)ncnc43)[C@H](O)[C@@H]1O)c1[nH]c(=O)[nH]c(=O)c1N2 [FADH^−]
X-ray crystal structure, 2.40 Å [2]: Clear electron density for FADH^− was observed in both protomers. | stopped-flow absorbance at 380 and 450 nm, C4a-hydroperoxyflavin formation [3]: These data indicate that Lys79Thr could still form C4aOOH-FAD

SMILES: Cc1cc2nc3c(=O)[nH]c(=O)nc-3n(C[C@H](O)[C@H](O)[C@H](O)COP(=O)(O)OP(=O)(O)OC[C@H]3O[C@@H](n4cnc5c(N)ncnc54)[C@H](O)[C@@H]3O)c2cc1C [FAD]
X-ray crystal structure, 1.91 Å ([1]; flavin site): Thal:FAD:AMP (PDB code 7CU1) were solved with two protomers per asymmetric unit (asu).

Kd [6]: 64 ± 21 µM
SMILES: I [I^−]
stopped-flow fluorescence, C4a-hydroxyflavin formation [4]: PrnA and PyrH could also react with I^− to form HOI and C4aOH-FAD | stopped-flow fluorescence, C4a-hydroxyflavin formation [5]: PrnA and PyrH could also react with I^− to form HOI and C4aOH-FAD

SMILES: N[C@@H](Cc1c[nH]c2ccccc12)C(=O)O [tryptophan]
X-ray crystal structure, 1.95 Å [7]: we solved the structure of the Thal:TRP complex (PBD code 7CU0 | multiple turnover halogenation [8]: multiple turnover reactions of Thal were carried out and compared with the reactions of PrnA
